Publication PMC11766267 (International Journal of Molecular Sciences, 2025)
Several values for one entry are separate records, joined by “and”; a condition that tells them apart may be missing. Equal entries are not always repeated. Where two headings read alike, the source gives them in different places.

How the values were obtained:
CDK2 = CDK2 (Homo sapiens, UniProt P24941); assay: In vitro protein kinase inhibition assay (ELISA kit), CDK2
VEGFR-2 = VEGFR-2 (Homo sapiens, UniProt P35968); assay: In vitro protein kinase inhibition assay (ELISA kit), VEGFR-2
[1] = system: HCT-116, MDA-MB-231, HeLa, and MCF-7; assay: MTT cytotoxicity assay, ranges stated over several cell lines; type: cell-based; settings: Homo sapiens, range over the compounds named
Procedure: Subsequently, 100 µL of dimethyl sulfoxide was introduced to dissolve the insoluble formazan.

HER2 = HER2 (Homo sapiens, UniProt P04626); assay: In vitro protein kinase inhibition assay (ELISA kit), HER2
EGFR = EGFR (Homo sapiens, UniProt P00533); assay: In vitro protein kinase inhibition assay (ELISA kit), EGFR
[2] = target: T1, aromatase (CYP19A, EC 1.14.14.14) (Homo sapiens, UniProt P11511); assay: biochemical; settings: individual Data 1-3
T1 construct: Microsomal samples were isolated from tissue using the Microsome Isolation Kit; tissue BioVision K983-100; host or cells: microsomes from an unnamed tissue
T1 sequence (P11511 1-503): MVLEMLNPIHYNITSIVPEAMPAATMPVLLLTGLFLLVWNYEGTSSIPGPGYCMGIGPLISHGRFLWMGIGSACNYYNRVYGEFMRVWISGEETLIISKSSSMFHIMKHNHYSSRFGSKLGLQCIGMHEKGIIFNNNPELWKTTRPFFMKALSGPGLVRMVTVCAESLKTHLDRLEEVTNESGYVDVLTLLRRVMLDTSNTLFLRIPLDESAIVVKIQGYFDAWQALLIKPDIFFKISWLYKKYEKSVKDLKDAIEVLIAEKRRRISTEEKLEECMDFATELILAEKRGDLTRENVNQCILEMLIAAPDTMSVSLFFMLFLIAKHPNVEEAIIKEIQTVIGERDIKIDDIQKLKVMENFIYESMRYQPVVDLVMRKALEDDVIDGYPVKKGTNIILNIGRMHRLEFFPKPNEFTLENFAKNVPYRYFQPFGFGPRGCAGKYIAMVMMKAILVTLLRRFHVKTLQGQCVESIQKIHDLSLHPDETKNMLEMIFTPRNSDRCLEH
Procedure: In vitro aromatase assay was performed using the BioVision Aromatase Activity Assay Kit (Catalog # K983-100; BioVision, Milpitas, CA, USA). Microsomal samples were isolated from tissue using the Microsome Isolation Kit (Cat. #K249; BioVision, Milpitas, CA, USA). A standard curve was established by diluting the Fluorescence Standard provided in the kit to create a 0.5 pmole/µL solution, followed by setting up a series of standards in a white 96-well plate, adjusting the total volume to 100 µL with aromatase assay buffer. For each reaction well, a 2X concentrated mix was prepared by adding 2–48 µL of the microsomal sample and 2 µL of the NADPH generating system, bringing the final volume to 50 µL with aromatase assay buffer. Background controls (no enzyme) and positive controls (with recombinant aromatase) were included. […] After a 10 min incubation at 37 °C, 30 µL of the substrate/NADP+ mixture was added to each well, and fluorescence was measured immediately in kinetic mode for 60 min at 37 °C. Finally, the change in fluorescence was calculated to determine the specific activity of aromatase using the formula provided in the kit protocol.

MCF-7 = assay: In vitro anti-estrogenic activity assay, MCF-7
MCF-7a = assay: In vitro anti-estrogenic activity assay, MCF-7a
[3] = cell count relative to the control (17β-E2)

HER2, sequence (P04626 23-1255): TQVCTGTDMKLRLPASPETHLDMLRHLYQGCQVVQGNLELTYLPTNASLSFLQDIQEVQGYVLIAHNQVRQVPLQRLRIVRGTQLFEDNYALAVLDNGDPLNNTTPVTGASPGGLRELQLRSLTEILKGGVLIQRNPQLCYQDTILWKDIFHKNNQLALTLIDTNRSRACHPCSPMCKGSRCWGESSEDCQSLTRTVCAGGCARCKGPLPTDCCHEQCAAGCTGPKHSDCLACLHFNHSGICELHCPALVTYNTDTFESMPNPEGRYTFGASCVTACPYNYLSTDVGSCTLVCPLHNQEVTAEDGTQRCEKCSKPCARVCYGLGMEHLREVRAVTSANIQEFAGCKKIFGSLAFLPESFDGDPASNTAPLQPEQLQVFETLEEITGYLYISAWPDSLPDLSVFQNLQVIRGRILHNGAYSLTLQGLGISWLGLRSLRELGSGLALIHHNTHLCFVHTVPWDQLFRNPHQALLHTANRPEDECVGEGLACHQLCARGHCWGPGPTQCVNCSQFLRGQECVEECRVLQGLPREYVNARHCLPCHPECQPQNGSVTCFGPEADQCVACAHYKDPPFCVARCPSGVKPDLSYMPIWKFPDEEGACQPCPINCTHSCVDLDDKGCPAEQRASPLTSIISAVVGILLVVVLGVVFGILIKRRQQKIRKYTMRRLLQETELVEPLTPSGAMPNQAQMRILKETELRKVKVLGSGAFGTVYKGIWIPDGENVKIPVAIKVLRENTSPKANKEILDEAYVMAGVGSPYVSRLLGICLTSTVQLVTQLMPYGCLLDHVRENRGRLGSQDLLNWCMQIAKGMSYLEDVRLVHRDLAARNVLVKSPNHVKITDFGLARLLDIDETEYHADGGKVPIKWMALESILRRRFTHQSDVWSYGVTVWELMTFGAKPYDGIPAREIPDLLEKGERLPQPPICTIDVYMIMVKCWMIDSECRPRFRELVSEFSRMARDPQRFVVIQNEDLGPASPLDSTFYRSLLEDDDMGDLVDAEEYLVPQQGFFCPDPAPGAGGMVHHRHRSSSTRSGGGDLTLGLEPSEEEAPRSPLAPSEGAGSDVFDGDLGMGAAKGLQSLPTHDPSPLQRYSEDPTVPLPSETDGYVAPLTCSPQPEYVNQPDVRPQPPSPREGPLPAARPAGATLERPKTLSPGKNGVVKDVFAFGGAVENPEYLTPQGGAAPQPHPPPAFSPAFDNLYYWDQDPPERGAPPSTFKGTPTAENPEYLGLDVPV
EGFR, sequence (P00533 25-1210): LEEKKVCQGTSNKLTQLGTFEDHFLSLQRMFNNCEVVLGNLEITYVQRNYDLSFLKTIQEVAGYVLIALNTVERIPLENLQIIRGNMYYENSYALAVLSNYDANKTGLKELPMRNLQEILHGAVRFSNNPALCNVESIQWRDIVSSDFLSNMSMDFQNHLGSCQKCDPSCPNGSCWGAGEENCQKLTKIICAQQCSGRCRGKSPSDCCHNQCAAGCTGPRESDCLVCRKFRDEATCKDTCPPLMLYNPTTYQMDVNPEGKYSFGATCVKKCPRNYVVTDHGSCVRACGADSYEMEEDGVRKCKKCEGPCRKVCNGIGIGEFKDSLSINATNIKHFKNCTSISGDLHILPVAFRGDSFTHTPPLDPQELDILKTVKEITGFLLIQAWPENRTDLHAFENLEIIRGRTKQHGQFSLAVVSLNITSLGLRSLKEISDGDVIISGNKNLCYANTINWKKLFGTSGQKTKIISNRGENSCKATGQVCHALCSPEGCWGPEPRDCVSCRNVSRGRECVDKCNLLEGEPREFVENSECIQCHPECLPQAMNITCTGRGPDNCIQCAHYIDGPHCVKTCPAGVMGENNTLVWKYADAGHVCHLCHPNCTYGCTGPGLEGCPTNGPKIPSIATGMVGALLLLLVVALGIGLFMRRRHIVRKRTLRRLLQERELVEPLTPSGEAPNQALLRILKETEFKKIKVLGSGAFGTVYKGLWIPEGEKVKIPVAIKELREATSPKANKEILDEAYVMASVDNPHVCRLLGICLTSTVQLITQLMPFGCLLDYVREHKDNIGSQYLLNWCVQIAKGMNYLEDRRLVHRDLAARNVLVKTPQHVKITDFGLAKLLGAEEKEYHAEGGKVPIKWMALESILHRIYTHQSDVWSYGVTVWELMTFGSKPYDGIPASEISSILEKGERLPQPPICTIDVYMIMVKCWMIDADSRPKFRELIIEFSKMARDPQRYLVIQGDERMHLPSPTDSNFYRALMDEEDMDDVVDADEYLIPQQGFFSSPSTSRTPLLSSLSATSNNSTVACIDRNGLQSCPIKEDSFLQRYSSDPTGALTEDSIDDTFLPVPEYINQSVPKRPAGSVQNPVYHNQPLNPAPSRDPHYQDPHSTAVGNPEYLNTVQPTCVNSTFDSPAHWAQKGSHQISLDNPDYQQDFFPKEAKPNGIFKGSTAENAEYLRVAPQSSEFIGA
VEGFR-2, sequence (P35968 20-1356): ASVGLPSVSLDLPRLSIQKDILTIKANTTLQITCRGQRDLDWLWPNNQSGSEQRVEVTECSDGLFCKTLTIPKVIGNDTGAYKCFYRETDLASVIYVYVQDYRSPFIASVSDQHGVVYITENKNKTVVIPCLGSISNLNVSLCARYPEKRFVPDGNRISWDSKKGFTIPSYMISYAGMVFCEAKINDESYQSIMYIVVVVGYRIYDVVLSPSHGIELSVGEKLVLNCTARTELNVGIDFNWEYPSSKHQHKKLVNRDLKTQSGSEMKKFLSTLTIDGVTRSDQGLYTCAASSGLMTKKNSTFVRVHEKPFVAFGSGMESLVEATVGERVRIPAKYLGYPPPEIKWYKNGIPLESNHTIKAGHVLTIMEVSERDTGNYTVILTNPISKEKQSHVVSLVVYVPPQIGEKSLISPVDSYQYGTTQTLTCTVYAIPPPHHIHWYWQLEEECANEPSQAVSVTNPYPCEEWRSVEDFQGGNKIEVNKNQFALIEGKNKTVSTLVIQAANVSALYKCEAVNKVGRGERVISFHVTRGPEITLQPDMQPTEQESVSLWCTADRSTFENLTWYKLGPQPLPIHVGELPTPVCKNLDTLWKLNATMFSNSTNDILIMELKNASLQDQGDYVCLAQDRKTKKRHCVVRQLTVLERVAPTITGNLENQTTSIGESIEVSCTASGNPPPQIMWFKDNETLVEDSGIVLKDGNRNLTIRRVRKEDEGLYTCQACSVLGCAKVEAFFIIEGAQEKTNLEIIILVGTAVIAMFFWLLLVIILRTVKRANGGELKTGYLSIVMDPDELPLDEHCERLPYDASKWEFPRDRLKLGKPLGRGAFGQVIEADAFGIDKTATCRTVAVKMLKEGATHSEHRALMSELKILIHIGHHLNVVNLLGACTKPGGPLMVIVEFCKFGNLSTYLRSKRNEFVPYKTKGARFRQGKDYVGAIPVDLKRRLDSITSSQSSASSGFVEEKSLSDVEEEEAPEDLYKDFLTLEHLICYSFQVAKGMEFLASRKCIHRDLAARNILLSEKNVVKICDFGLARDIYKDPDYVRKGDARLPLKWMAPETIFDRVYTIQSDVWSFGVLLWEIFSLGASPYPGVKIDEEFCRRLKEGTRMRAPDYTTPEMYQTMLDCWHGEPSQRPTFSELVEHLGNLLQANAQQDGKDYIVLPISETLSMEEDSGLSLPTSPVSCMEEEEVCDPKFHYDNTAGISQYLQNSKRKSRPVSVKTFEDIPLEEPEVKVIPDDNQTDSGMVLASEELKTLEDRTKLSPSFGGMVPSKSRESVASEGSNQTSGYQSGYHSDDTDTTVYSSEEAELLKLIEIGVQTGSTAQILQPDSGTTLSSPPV

O=C(/C=C/c1ccccc1)c1ccccc1 [Compound 4a, (E)-Chalcone] was tested, and the IC50 (CDK2) was 840 ± 26 nM, the “Inhibition (%) CDK2” value (CDK2; 0.01 µM, individual Data 1-3) was 9.7% and 12% and the “Inhibition (%) CDK2” value (CDK2; 0.1 µM, individual Data 1-3) was 25.6% and 28.78%. For the same compound, the “Inhibition (%) CDK2” value (CDK2; 1 µM, individual Data 1-3) was 53.8% and 52.78%, the “Inhibition (%) CDK2” value (CDK2; 10 µM, individual Data 1-3) was 72.98% and 76% and the “Inhibition (%) CDK2” value (CDK2; 100 µM, individual Data 1-3) was 88.7% and 92.7%. The inhibition at 0.01 µM (CDK2; read-out: Inhibition (%) CDK2, 0.01 µM, individual Data 1-3) was 11.8%, the inhibition at 0.1 µM (CDK2; read-out: Inhibition (%) CDK2, 0.1 µM, individual Data 1-3) was 27.7% and the inhibition at 1 µM (CDK2; read-out: Inhibition (%) CDK2, 1 µM, individual Data 1-3) was 54%. It also gave an inhibition at 10 µM (CDK2; read-out: Inhibition (%) CDK2, 10 µM, individual Data 1-3) of 74.1%, an inhibition at 100 µM (CDK2; read-out: Inhibition (%) CDK2, 100 µM, individual Data 1-3) of 90.3% and an IC50 (VEGFR-2) of 1550 ± 53 nM. The “Inhibition (%) VEGFR2” value (VEGFR-2; 0.01 µM, individual Data 1-3) was 4.43% and 2.43% and 5.78%, the “Inhibition (%) VEGFR2” value (VEGFR-2; 0.1 µM, individual Data 1-3) was 19.78% and 23.4% and the “Inhibition (%) VEGFR2” value (VEGFR-2; 1 µM, individual Data 1-3) was 40.5% and 38.5%. For the same compound, the “Inhibition (%) VEGFR2” value (VEGFR-2; 10 µM, individual Data 1-3) was 69% and 76.6%, the “Inhibition (%) VEGFR2” value (VEGFR-2; 100 µM, individual Data 1-3) was 86.5% and 92.5% and the inhibition at 0.1 µM (VEGFR-2; read-out: Inhibition (%) VEGFR2, 0.1 µM, individual Data 1-3) was 21.6%. It also gave an inhibition at 1 µM (VEGFR-2; read-out: Inhibition (%) VEGFR2, 1 µM, individual Data 1-3) of 43.5%, an inhibition at 10 µM (VEGFR-2; read-out: Inhibition (%) VEGFR2, 10 µM, individual Data 1-3) of 73.3% and an inhibition at 100 µM (VEGFR-2; read-out: Inhibition (%) VEGFR2, 100 µM, individual Data 1-3) of 89.2%. The IC50 ([1]; HCT-116 and HeLa, read-out: IC50 values, range against HCT-116 and HeLa) was 6590 to 22600 nM, the IC50 ([1]; MDA-MB-231 and MCF-7, read-out: IC50 values, range against MDA-MB-231 and MCF-7) was 2080 to 13600 nM and the IC50 (HER2) was 691 ± 27 nM. The “Inhibition (%) Her2” value (HER2; 0.01 µM, individual Data 1-3) was 10.6% and 14.2%, the “Inhibition (%) Her2” value (HER2; 0.1 µM, individual Data 1-3) was 21.8% and 24.9% and the “Inhibition (%) Her2” value (HER2; 1 µM, individual Data 1-3) was 60.9% and 59.5%. For the same compound, the “Inhibition (%) Her2” value (HER2; 10 µM, individual Data 1-3) was 78% and 81.2%, the “Inhibition (%) Her2” value (HER2; 100 µM, individual Data 1-3) was 89.9% and 93.1% and the inhibition at 0.01 µM (HER2; read-out: Inhibition (%) Her2, 0.01 µM, individual Data 1-3) was 12.3%. The inhibition at 0.1 µM (HER2; read-out: Inhibition (%) Her2, 0.1 µM, individual Data 1-3) was 23.8%, the inhibition at 1 µM (HER2; read-out: Inhibition (%) Her2, 1 µM, individual Data 1-3) was 62.2% and the inhibition at 10 µM (HER2; read-out: Inhibition (%) Her2, 10 µM, individual Data 1-3) was 79.1%. For the same compound, the inhibition at 100 µM (HER2; read-out: Inhibition (%) Her2, 100 µM, individual Data 1-3) was 91%, the IC50 (EGFR) was 367 ± 12 nM and the “Inhibition (%) EGFR” value (EGFR; 0.01 µM, individual Data 1-3) was 10.8% and 13.9%. The “Inhibition (%) EGFR” value (EGFR; 0.1 µM, individual Data 1-3) was 34.2% and 37.1%, the “Inhibition (%) EGFR” value (EGFR; 1 µM, individual Data 1-3) was 68.2% and 66.7% and the “Inhibition (%) EGFR” value (EGFR; 10 µM, individual Data 1-3) was 83.2% and 86.9%. For the same compound, the “Inhibition (%) EGFR” value (EGFR; 100 µM, individual Data 1-3) was 93.9% and 94.2%, the inhibition at 0.01 µM (EGFR; read-out: Inhibition (%) EGFR, 0.01 µM, individual Data 1-3) was 12.3% and the inhibition at 0.1 µM (EGFR; read-out: Inhibition (%) EGFR, 0.1 µM, individual Data 1-3) was 35.8%. For the same compound, the inhibition at 1 µM (EGFR; read-out: Inhibition (%) EGFR, 1 µM, individual Data 1-3) was 69.9%, the inhibition at 10 µM (EGFR; read-out: Inhibition (%) EGFR, 10 µM, individual Data 1-3) was 85.6% and the inhibition at 100 µM (EGFR; read-out: Inhibition (%) EGFR, 100 µM, individual Data 1-3) was 95.1%. The “Inhibition (%) Aromatase” value ([2]; 0.01 µM) was 19.87% and 20.56%, the “Inhibition (%) Aromatase” value ([2]; 0.1 µM) was 28.65% and 29.76% and the “Inhibition (%) Aromatase” value ([2]; 1 µM) was 63% and 62.76%. The “Inhibition (%) Aromatase” value ([2]; 10 µM) was 82.87% and 83.45%, the “Inhibition (%) Aromatase” value ([2]; 100 µM) was 92.23% and 94% and the inhibition at 0.01 µM ([2]; read-out: Inhibition (%) Aromatase, 0.01 µM) was 20%. The inhibition at 0.1 µM ([2]; read-out: Inhibition (%) Aromatase, 0.1 µM) was 29%, the inhibition at 1 µM ([2]; read-out: Inhibition (%) Aromatase, 1 µM) was 64% and the inhibition at 10 µM ([2]; read-out: Inhibition (%) Aromatase, 10 µM) was 83%. The inhibition at 100 µM ([2]; read-out: Inhibition (%) Aromatase, 100 µM) was 93%, the “Cell Proliferation MCF-7 %” value (MCF-7; [3]) was 79% and the “Cell Proliferation MCF-7 Cell Count” value (MCF-7; mean ± SD of triplicate) was 14,553 ± 518. For the same compound, the “Reduction of growth/cell count (inhibition) in MCF-7” value (MCF-7; relative to control) was 21%, the “Cell Proliferation MCF-7a %” value (MCF-7a; [3]) was 102% and the “Cell Proliferation MCF-7a Cell Count” value (MCF-7a; mean ± SD of triplicate) was 21,155 ± 611. For the same compound, the “Inhibition in MCF-7a” value (MCF-7a; relative to control) was “no inhibition”.
